Test results from paper PMC4917448 (Journal of biomolecular screening, 2016).
“Also recorded” adds a separate entry of the source.

Experiments:
HDAC I/II [1] = assay: HDAC-Glo I/II assay in HCT116 cells; type: cell-based, human; conditions: for HDAC-Glo: Efficacy, HCT116 / Efficacy, HDAC-Glo I/II HCT116 assay: maximal response; for HDAC I/II inhibitory activity (in words): HCT116 and HEK293 cells, validation with epigenetics libraries; for HDAC activity inhibited, HDAC-Glo I/II: HCT116, qHTS primary screening of NPC library; for IC50, HDAC-Glo activity: HCT116, validation with epigenetics libraries, 0.7 nM-46 μM
HDAC I/II [2] = assay: HDAC-Glo I/II assay in human neural stem cells; type: cell-based; conditions: cherry-pick confirmation; for HDAC-Glo: Efficacy, hNSC: maximal response; for IC50: read-out: HDAC-Glo: IC50, hNSC, 11 concentrations, 1 hour; for inhibition of HDAC-Glo I/II luminescence signals: hNSCs, Figure 2
human neural stem cells = assay: CellTiter-Glo cell viability assay in hNSC; type: cell-based; conditions: cherry-pick confirmation, 1 hour
HCT116 cells = assay: CellTiter-Glo cell viability assay in HCT116; type: cell-based, human; conditions: cherry-pick confirmation, 1 hour
HDAC6 = target: T1, HDAC6 (Homo sapiens, UniProt Q9UBN7); assay: Fluorogenic isoform-specific HDAC assay, HDAC6; type: biochemical; conditions: 20 μM
T1 sequence (Q9UBN7 1-1215): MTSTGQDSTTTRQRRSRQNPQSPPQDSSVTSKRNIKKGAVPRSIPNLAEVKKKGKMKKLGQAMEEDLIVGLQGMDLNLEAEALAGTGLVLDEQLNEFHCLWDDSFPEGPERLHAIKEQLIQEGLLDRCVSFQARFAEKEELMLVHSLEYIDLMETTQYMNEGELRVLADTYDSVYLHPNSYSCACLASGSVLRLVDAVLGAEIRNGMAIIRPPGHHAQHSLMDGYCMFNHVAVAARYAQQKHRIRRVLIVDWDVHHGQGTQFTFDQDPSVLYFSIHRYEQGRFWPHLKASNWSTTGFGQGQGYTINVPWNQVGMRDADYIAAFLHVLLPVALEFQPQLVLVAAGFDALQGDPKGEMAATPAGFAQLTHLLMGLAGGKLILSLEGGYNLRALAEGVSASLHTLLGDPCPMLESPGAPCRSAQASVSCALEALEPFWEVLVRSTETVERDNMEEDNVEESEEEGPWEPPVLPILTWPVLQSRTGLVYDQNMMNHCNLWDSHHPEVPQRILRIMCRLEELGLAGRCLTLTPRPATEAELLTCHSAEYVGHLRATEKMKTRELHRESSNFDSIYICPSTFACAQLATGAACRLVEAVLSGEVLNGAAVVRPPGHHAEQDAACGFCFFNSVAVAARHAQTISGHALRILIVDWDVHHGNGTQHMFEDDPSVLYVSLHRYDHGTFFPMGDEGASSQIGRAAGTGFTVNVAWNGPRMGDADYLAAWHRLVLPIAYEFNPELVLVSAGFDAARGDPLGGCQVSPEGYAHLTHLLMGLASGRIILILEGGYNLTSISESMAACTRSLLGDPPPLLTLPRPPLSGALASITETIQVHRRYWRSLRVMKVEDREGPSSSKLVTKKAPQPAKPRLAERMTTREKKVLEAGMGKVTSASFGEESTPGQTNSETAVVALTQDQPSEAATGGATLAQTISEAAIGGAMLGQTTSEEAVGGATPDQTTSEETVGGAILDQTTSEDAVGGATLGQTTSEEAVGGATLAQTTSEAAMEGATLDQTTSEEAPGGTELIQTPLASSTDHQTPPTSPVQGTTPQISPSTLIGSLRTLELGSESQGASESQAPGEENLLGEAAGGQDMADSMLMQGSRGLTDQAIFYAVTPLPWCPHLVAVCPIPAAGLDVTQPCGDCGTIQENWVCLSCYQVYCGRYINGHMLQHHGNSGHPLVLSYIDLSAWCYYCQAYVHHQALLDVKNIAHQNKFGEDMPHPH

HDAC3 = HDAC3 (Homo sapiens, UniProt O15379); assay: Fluorogenic isoform-specific HDAC assay, HDAC3; type: biochemical; conditions: 20 μM
[3] = test system: class I and II HDAC enzymes; assay: Panel of fluorogenic assays against ten class I and II HDAC isoforms; type: biochemical, human; conditions: 20 μM; for inhibition of HDAC isoforms (in words): Figure 3
HDAC I/II [4] = assay: HDAC-Glo I/II assay in HEK293 cells; type: cell-based, human; conditions: HEK293, validation with epigenetics libraries, 0.7 nM-46 μM
[5] = read-out: HDAC-Glo: IC50, HCT116, cherry-pick confirmation, 11 concentrations, 1 hour
[6] = read-out: IC50, HDAC-Glo I/II HCT116 assay, powder confirmation

Sequence of HDAC3 (O15379 whole entry, canonical isoform): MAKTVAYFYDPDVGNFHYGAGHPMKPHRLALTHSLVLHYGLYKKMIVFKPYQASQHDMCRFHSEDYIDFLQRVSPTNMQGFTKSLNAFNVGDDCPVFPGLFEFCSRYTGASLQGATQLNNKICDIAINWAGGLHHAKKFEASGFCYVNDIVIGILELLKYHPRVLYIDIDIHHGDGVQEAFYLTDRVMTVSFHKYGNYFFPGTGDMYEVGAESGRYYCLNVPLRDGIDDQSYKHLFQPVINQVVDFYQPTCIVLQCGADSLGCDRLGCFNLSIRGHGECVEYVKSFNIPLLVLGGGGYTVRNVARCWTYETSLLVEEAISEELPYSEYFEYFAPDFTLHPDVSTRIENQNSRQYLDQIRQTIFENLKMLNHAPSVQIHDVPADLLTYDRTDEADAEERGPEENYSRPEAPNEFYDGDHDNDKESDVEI
Sequence of HDAC3 (Q9Y618 395-489 partner limits assumed): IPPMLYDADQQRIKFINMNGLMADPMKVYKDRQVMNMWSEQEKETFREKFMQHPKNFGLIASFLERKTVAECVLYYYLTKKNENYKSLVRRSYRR

IC50 (HDAC I/II [1]; [5])	IC50 (HDAC I/II [2])	Viability: IC50, HCT116 (HCT116 cells)	IC50 (HDAC I/II [1]; [6])	Molecule	HDAC-Glo: Efficacy, HCT116 (HDAC I/II [1]; cherry-pick confirmation)	HDAC-Glo: Efficacy, hNSC (HDAC I/II [2])	Viability: IC50, hNSC (human neural stem cells)	Efficacy, HDAC-Glo I/II HCT116 assay (HDAC I/II [1]; powder confirmation)	also measured
940 ± 110 nM	760 ± 170 nM	Inactive		CC(C)[C@H](C(=O)Nc1ccc(C(=O)NO)cc1)c1ccccc1 [AR-42]	113 ± 2%	115 ± 5%	Inactive		
				CNC(=O)c1ccccc1Sc1ccc2c(/C=C/c3ccccn3)n[nH]c2c1 [Axitinib]	2.97 ± 0.34 (105 ± 3) %	6.65 ± 0.76 (106 ± 4) %			inhibition of HDAC6 (in words) (HDAC6): inhibited HDADC6 the most
1940 ± 660 nM	950 ± 200 nM	Inactive		CN(C)C(=O)COC(=O)Cc1ccc(OC(=O)c2ccc(NC(=N)N)cc2)cc1 [Camostat]	109 ± 4%	102 ± 3%	Inactive		inhibition of HDAC-Glo I/II luminescence signals (HDAC I/II [2]): completely inhibited
3870 ± 810 nM	2240 ± 150 nM	Inactive	5280 ± 630 nM	O=C(Oc1ccccc1)c1cccc(C(=O)Oc2ccccc2)c1 [Diphenyl isophthalate]	112 ± 5%	103 ± 3%	Inactive	97 ± 0%	inhibition of HDAC3 (in words) (HDAC3): selectively inhibited
2380 ± 440 nM	2160 ± 600 nM	Inactive	2430 ± 270 nM	Cc1nc(-c2ccc(OCC(C)C)c(C#N)c2)sc1C(=O)O [Febuxostat]	127 ± 5%	116 ± 3%	Inactive	96 ± 1%	inhibition of HDAC3 (in words) (HDAC3): selectively inhibited; also recorded: selective to HDAC3
				C[C@@H]1NC(=O)[C@H]2CCCN2C(=O)[C@H](CCCCCC(=O)[C@@H]2CO2)NC(=O)[C@@H](C)NC1=O [HC Toxin]					HDAC I/II inhibitory activity (in words) (HDAC I/II [1]): identified
2320 ± 650 nM	1960 ± 350 nM	Inactive		CC(C)(C)OC(=O)Nc1ccc(-c2cc(C(=O)NCCCCCCC(=O)NO)no2)cc1 [ISOX]	124 ± 5%	118 ± 6%	Inactive		
1670 ± 190 nM	2020 ± 130 nM	Inactive	2360 ± 110 nM	O=C(/C=C/c1ccc(O)cc1)c1ccc(O)cc1O [Isoliquiritigenin]	110 ± 3%	117 ± 5%	Inactive	97 ± 0%	inhibition of HDAC isoforms (in words) [3]: weakly inhibited many class I and II HDAC enzymes
9480 ± 1980 nM	5900 nM	Inactive	5610 ± 120 nM	Cc1oncc1C(=O)Nc1ccc(C(F)(F)F)cc1 [Leflunomide]	118 ± 11%	106 ± 2%	Inactive	92 ± 0%	inhibition of HDAC3 (in words) (HDAC3): selectively inhibited
2380 ± 160 nM	1400 ± 240 nM	Inactive	2080 ± 170 nM	O=C(Nc1ccc([N+](=O)[O-])cc1Cl)c1cc(Cl)ccc1O [Niclosamide]	112 ± 2%	102 ± 4%	Inactive	98 ± 1%	
350 ± 60 nM	270 ± 60 nM	Inactive		CCCCc1nc2cc(/C=C/C(=O)NO)ccc2n1CCN(CC)CC [Pracinostat]	114 ± 4%	112 ± 5%	Inactive		
				Nc1cc(F)ccc1NC(=O)/C=C/c1cnn(C/C=C/c2ccccc2)c1 [RGFP966]					HDAC I/II inhibitory activity (in words) (HDAC I/II [1]): identified
1870 ± 220 nM	1190 ± 250 nM	Inactive	1760 ± 240 nM	O=C(CCCCCN1C(=O)c2cccc3cccc(c23)C1=O)NO [Scriptaid]	123 ± 3%	113 ± 6%	Inactive	93 ± 1%	inhibition against all class I and II HDAC enzymes [3]: over 80%; inhibition of HDAC isoforms (in words) [3]: inhibited activities of all isoforms
	660 ± 80 nM	Inactive		O=C(CCCCCCC(=O)Nc1ccccc1)NO [Vorinostat, suberoylanilide hydroxamic acid]	0.77 ± 0.05 (119 ± 6) %	101 ± 2%	Inactive	0.45 ± 0.04 (99 ± 0) %	
				CCC[S+]([O-])c1ccc2[nH]c(NC(=O)OC)nc2c1 (stereo not shown) [albendazole oxide]					HDAC activity inhibited, HDAC-Glo I/II (HDAC I/II [1]): more than half
				CCCSc1ccc2nc(NC(=O)OC)[nH]c2c1 [albendazole]					HDAC activity inhibited, HDAC-Glo I/II (HDAC I/II [1]): more than half
				CCC(=O)CCCCC[C@@H]1NC(=O)[C@H]2CCCCN2C(=O)[C@H]([C@@H](C)CC)NC(=O)[C@H](Cc2cn(OC)c3ccccc23)NC1=O [apicidin]					HDAC I/II inhibitory activity (in words) (HDAC I/II [1]): identified
				Nc1cc(F)ccc1NC(=O)c1ccc(CNC(=O)/C=C/c2cccnc2)cc1 [chidamide]					HDAC I/II inhibitory activity (in words) (HDAC I/II [1]): identified
				Nc1ccccc1NC(=O)c1ccc(CNC(=O)OCc2cccnc2)cc1 [entinostat]					HDAC I/II inhibitory activity (in words) (HDAC I/II [1]): identified
				CCCC(=O)[O-].[Na+] [sodium butyrate]					IC50, HDAC-Glo activity (HDAC I/II [1]): did not show concentration-dependent inhibition; IC50, HDAC-Glo activity (HDAC I/II [4]): did not show concentration-dependent inhibition
				O=C(O)CCCc1ccccc1 [sodium phenylbutyrate]					IC50, HDAC-Glo activity (HDAC I/II [1]): did not show concentration-dependent inhibition; IC50, HDAC-Glo activity (HDAC I/II [4]): did not show concentration-dependent inhibition
				c1ccc2[nH]c(-c3cscn3)nc2c1 [thiabendazole]					HDAC activity inhibited, HDAC-Glo I/II (HDAC I/II [1]): more than half
				CCCC(CCC)C(=O)O [valproic acid]					IC50, HDAC-Glo activity (HDAC I/II [1]): did not show concentration-dependent inhibition; IC50, HDAC-Glo activity (HDAC I/II [4]): did not show concentration-dependent inhibition
				selisistat [selisistat (EX-527)]					average IC50, HDAC-Glo I/II, assay selectivity (HDAC I/II [1]; HCT116, Figure 1C): inactive

Molecule	IC50 (HDAC I/II [1]; [5])	IC50 (HDAC I/II [2])	Viability: IC50, HCT116 (HCT116 cells)	IC50 (HDAC I/II [1]; [6])	HDAC-Glo: Efficacy, HCT116 (HDAC I/II [1]; cherry-pick confirmation)	HDAC-Glo: Efficacy, hNSC (HDAC I/II [2])	Viability: IC50, hNSC (human neural stem cells)	Efficacy, HDAC-Glo I/II HCT116 assay (HDAC I/II [1]; powder confirmation)	also measured
CC(C)c1ccc2oc3nc(N)c(C(=O)O)cc3c(=O)c2c1 [Amlexanox]	1090 ± 70 nM	1100 ± 140 nM	Inactive	1650 ± 360 nM	110 ± 2%	96 ± 7%	Inactive	98 ± 0%	
Oc1ccc(/C=C/c2cc(O)cc(O)c2)cc1 [Resveratrol]	11000 ± 1980 nM	7430 nM	Inactive	18200 ± 2050 nM	97 ± 13%	102 ± 4%	Inactive	69 ± 2%	HDAC I/II inhibitory activity (in words) (HDAC I/II [1]): identified; inhibition of HDAC-Glo I/II luminescence signals (HDAC I/II [2]): completely inhibited
